Assay results from ChEMBL document CHEMBL1909046, “DrugMatrix in vitro pharmacology data”.

Legend:
[1] = DRUGMATRIX: Atrial Natriuretic Factor (ANF) radioligand binding (ligand: [125I] ANF (rat)); type: cell membranes, Cavia porcellus, Dunkin-Hartley, Adrenal gland, Membrane; settings: Not Active = under 50% inhibition at 10 µM
[2] = biological target: T1, Receptor-type tyrosine-protein phosphatase C (Homo sapiens, UniProt P08575); set-up: species or system Escherichia coli;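 note: inhibition of CD45 enzyme activity measured using DiFMUP as substrate; in other assays of this panel Not Active means under 50% inhibition at 10 µM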
T1 sequence (P08575 whole entry): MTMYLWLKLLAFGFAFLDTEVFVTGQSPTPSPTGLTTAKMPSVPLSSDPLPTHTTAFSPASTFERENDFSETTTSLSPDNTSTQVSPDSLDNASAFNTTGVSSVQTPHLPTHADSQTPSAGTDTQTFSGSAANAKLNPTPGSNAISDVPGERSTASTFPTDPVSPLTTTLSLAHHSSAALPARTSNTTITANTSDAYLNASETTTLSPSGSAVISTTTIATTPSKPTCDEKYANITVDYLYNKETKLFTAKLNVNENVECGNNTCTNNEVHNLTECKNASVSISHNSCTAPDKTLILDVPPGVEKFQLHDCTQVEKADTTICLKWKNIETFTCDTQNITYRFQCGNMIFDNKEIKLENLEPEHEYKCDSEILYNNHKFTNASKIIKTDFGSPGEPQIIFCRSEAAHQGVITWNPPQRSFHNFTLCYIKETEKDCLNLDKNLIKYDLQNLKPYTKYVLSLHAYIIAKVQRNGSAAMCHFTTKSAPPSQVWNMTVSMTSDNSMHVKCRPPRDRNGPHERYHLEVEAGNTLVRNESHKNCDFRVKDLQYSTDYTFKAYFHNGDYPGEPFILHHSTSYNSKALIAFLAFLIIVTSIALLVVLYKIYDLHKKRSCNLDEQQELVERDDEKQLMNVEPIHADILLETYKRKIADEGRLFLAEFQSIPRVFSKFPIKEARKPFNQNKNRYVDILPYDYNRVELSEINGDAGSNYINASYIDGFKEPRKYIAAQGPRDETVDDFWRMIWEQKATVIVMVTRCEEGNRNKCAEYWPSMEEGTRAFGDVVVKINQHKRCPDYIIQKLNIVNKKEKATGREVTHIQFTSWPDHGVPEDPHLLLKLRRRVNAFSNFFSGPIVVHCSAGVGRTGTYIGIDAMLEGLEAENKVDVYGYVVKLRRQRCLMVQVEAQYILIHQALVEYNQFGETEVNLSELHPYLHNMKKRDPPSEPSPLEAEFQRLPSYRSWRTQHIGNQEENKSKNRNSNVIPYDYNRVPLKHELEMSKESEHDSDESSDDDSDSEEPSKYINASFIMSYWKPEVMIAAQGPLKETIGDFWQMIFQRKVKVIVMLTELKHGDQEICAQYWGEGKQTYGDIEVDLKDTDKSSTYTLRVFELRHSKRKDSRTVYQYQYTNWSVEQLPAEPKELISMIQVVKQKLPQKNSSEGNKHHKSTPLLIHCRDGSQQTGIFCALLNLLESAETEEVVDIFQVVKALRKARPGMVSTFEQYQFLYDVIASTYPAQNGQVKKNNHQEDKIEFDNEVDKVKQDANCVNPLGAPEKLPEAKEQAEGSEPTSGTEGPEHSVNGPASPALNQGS

[3] = biological target: T2, Alpha-1D adrenergic receptor (Homo sapiens, UniProt P25100); type: cell membranes, HEK293, Membrane; note: in other assays of this panel Not Active means under 50% inhibition at 10 µM
T2 sequence (P25100 whole entry): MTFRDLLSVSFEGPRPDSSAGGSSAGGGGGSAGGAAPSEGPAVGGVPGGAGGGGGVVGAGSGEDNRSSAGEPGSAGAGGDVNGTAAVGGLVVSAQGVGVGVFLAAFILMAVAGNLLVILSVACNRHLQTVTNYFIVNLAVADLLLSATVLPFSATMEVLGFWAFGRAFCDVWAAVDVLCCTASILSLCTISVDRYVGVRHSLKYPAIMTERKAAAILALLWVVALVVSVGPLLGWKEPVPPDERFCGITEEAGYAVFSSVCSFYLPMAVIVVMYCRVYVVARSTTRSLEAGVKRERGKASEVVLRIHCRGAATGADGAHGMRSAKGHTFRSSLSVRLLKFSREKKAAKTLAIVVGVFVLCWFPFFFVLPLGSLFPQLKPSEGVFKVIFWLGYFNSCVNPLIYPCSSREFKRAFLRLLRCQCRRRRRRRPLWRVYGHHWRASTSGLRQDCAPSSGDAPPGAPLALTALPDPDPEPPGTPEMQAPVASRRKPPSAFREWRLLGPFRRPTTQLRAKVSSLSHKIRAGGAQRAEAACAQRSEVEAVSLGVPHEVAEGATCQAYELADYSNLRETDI

Vasopressin V1a receptor = Vasopressin V1a receptor (Homo sapiens, UniProt P37288); type: cell membranes, Membrane; settings: hek293; note: in other assays of this panel Not Active means under 50% inhibition at 10 µM
Cannabinoid receptor 1 = Cannabinoid receptor 1 (Homo sapiens, UniProt P21554); type: cell membranes, Membrane; settings: chem-1; note: in other assays of this panel Not Active means under 50% inhibition at 10 µM
[4] = biological target: 5-hydroxytryptamine receptor 2B (Homo sapiens, UniProt P41595); type: cell membranes, CHO-K1, Membrane; note: in other assays of this panel Not Active means under 50% inhibition at 10 µM
Cytochrome P450 2E1 = Cytochrome P450 2E1 (Homo sapiens, UniProt P05181); settings: bti-tn-5b1-4; note: in other assays of this panel Not Active means under 50% inhibition at 10 µM
Cytochrome P450 2E1, sequence (P05181 whole entry): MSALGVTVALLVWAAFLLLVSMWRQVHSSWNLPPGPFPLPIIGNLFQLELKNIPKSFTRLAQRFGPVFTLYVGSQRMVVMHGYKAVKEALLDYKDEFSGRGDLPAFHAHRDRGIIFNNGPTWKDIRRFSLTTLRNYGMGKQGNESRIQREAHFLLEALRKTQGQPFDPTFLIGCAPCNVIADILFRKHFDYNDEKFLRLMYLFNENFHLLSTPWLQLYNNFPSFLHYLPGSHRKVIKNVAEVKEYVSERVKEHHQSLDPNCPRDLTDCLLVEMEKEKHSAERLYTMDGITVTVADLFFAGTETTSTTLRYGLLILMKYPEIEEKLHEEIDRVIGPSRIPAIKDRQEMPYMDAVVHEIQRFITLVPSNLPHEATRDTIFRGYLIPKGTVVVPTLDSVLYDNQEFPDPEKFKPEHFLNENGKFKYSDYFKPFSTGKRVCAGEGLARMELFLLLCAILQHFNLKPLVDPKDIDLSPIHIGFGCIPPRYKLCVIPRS

Vasopressin V1a receptor, sequence (P37288 whole entry): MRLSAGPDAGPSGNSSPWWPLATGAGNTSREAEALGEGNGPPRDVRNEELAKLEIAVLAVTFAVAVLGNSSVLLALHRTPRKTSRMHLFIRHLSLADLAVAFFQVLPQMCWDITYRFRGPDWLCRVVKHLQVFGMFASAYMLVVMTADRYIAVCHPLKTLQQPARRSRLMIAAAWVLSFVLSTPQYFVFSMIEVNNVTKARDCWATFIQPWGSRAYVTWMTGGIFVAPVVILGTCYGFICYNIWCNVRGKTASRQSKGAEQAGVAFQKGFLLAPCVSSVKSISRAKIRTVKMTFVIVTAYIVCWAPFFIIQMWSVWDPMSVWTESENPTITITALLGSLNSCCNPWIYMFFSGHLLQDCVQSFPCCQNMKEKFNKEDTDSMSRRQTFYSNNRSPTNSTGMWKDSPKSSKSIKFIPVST
5-hydroxytryptamine receptor 2B, sequence (P41595 whole entry): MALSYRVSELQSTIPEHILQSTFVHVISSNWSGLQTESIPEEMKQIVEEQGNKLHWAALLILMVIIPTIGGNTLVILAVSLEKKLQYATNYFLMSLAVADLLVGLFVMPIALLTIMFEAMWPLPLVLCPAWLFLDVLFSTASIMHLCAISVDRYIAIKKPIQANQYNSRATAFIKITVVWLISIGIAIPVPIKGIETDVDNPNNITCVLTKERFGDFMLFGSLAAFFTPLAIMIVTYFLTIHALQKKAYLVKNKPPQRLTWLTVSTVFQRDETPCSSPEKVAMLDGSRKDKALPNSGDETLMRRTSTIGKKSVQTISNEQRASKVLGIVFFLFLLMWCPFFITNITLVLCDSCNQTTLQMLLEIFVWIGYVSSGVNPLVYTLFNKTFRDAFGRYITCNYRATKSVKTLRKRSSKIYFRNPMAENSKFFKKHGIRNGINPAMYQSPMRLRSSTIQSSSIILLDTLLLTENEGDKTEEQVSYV
Cannabinoid receptor 1, sequence (P21554 whole entry): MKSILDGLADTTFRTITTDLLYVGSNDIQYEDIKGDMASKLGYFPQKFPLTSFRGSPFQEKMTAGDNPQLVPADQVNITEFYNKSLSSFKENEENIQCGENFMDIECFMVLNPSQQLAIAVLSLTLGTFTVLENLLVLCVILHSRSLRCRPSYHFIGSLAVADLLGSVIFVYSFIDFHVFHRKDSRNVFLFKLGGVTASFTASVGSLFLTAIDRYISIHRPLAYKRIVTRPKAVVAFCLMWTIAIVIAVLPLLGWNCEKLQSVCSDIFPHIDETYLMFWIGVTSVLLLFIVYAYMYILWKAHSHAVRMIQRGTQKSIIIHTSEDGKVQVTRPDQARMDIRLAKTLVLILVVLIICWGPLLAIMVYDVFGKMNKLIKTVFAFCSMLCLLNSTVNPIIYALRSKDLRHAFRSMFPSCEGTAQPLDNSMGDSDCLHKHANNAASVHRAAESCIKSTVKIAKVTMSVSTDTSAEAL

| Molecule | IC50 [1] | Ki [1] | IC50 [2] | IC50 ([3]; hek293) | IC50 (Vasopressin V1a receptor) | IC50 (Cannabinoid receptor 1) | IC50 ([4]; cho-k1) | IC50 (Cytochrome P450 2E1) | Ki (Cytochrome P450 2E1) | Ki [2] | Ki ([3]; hek293) | Ki (Vasopressin V1a receptor) | Ki (Cannabinoid receptor 1) | Ki ([4]; cho-k1) | IC50 ([3]; read-out: IC50) [µM] | Ki ([3]; read-out: Ki) [µM] | IC50 ([4]; read-out: IC50) [µM] | Ki ([4]; read-out: Ki) [µM] |
| --- | --- | --- | --- | --- | --- | --- | --- | --- | --- | --- | --- | --- | --- | --- | --- | --- | --- | --- |
| CCS(=O)(=O)CCn1c([N+](=O)[O-])cnc1C [TINIDAZOLE] | Not Active | Not Active | Not Active | Not Active | Not Active | Not Active | Not Active |  |  |  |  |  |  |  |  |  |  |  |
| Nc1nc2c(c(=O)[nH]1)N(C=O)C(CNc1ccc(C(=O)N[C@@H](CCC(=O)O)C(=O)O)cc1)CN2 (stereo partly specified) [LEUCOVORIN] | Not Active | Not Active | Not Active | Not Active | Not Active | Not Active | Not Active | Not Active | Not Active |  |  |  |  |  |  |  |  |  |
| CC(=O)O[C@H]1C[C@@H]2CC[C@@H]3[C@H](CC[C@@]4(C)[C@H]3C[C@H]([N+]3(C)CCCCC3)[C@@H]4OC(C)=O)[C@@]2(C)C[C@@H]1N1CCCCC1.[Br-] [VECURONIUM BROMIDE] | Not Active | Not Active | Not Active | Not Active | Not Active | Not Active | Not Active | Not Active | Not Active |  |  |  |  |  |  |  |  |  |
| C[C@@H](O)[C@H]1C(=O)N2C(C(=O)O)=C(S[C@@H]3CN[C@H](C(=O)N(C)C)C3)[C@H](C)[C@H]12 [MEROPENEM] | Not Active | Not Active | Not Active | Not Active | Not Active | Not Active | Not Active | Not Active | Not Active |  |  |  |  |  |  |  |  |  |
| Cc1cn([C@H]2C[C@H](N=[N+]=[N-])[C@@H](CO)O2)c(=O)[nH]c1=O [ZIDOVUDINE] | Not Active | Not Active | Not Active | Not Active | Not Active | Not Active | Not Active | Not Active | Not Active |  |  |  |  |  |  |  |  |  |
| COc1cc(N)nc2[nH]c(-c3ccc(F)cc3)c(-c3ccncc3)c12 | Not Active | Not Active | Not Active | Not Active | Not Active | Not Active | Not Active | Not Active | Not Active |  |  |  |  |  |  |  |  |  |
| CN1C2CCCC1CC(NC(=O)c1nn(C)c3ccccc13)C2 (stereo unspecified) [GRANISETRON] |  |  | Not Active | Not Active | Not Active | Not Active | Not Active | Not Active | Not Active |  |  |  |  |  |  |  |  |  |
| THIMEROSAL | Not Active | Not Active | Not Active | Not Active | Not Active | Not Active | Not Active | Not Active | Not Active | Not Active | Not Active | Not Active | Not Active | Not Active |  |  |  |  |
| C[C@]12CC[C@H]3[C@@H](CCC4=CC(=O)CC[C@@]43C)[C@@H]1CC[C@@H]2O [TESTOSTERONE] | Not Active | Not Active | Not Active | Not Active | Not Active | Not Active | Not Active | Not Active | Not Active |  |  |  |  |  |  |  |  |  |
| CNS(=O)(=O)Cc1ccc2[nH]cc(CCN(C)C)c2c1 | Not Active | Not Active | Not Active | Not Active | Not Active | Not Active | Not Active | Not Active | Not Active |  |  |  |  |  |  |  |  |  |
| CO[C@H]1C[C@@H]2CC[C@@H](C)[C@@](O)(O2)C(=O)C(=O)N2CCCC[C@H]2C(=O)O[C@H]([C@H](C)C[C@@H]2CC[C@@H](O)[C@H](OC)C2)CC(=O)[C@H](C)/C=C(\C)[C@@H](O)[C@@H](OC)C(=O)[C@H](C)C[C@H](C)/C=C/C=C/C=C/1C [SIROLIMUS] | Not Active | Not Active | Not Active | Not Active | Not Active | Not Active | Not Active | Not Active | Not Active |  |  |  |  |  |  |  |  |  |
| CC(C)OC(=O)C(C)(C)Oc1ccc(C(=O)c2ccc(Cl)cc2)cc1 [FENOFIBRATE] |  |  | Not Active | Not Active | Not Active | Not Active | Not Active | Not Active | Not Active |  |  |  |  |  |  |  |  |  |
| CN(CCOc1ccc(CC2SC(=O)NC2=O)cc1)c1ccccn1 (stereo unspecified) [ROSIGLITAZONE] | Not Active | Not Active | Not Active | Not Active | Not Active | Not Active | Not Active | Not Active | Not Active |  |  |  |  |  |  |  |  |  |
| C=C(C)[C@H]1Cc2c(ccc3c2O[C@@H]2COc4cc(OC)c(OC)cc4[C@@H]2C3=O)O1 [ROTENONE] | Not Active | Not Active | Not Active | Not Active | Not Active | Not Active | Not Active | Not Active | Not Active |  |  |  |  |  |  |  |  |  |
| Nc1ccc(S(=O)(=O)Nc2nccs2)cc1 [SULFATHIAZOLE] | Not Active | Not Active | Not Active | Not Active | Not Active | Not Active | Not Active | Not Active | Not Active |  |  |  |  |  |  |  |  |  |
| OCCN1CCN(CCCN2c3ccccc3Sc3ccc(C(F)(F)F)cc32)CC1 [FLUPHENAZINE] |  |  | Not Active |  | Not Active | Not Active |  | Not Active | Not Active |  |  |  |  |  | 0.033 | 0.016 | 0.039 | 0.025 |
| COc1ccc(CN2CCNCC2)c(OC)c1OC [TRIMETAZIDINE] | Not Active | Not Active | Not Active | Not Active | Not Active | Not Active | Not Active |  |  |  |  |  |  |  |  |  |  |  |
| CC[C@@H](CO)NC(=O)[C@@H]1C=C2c3cccc4c3c(cn4C)C[C@H]2N(C)C1 [METHYSERGIDE] |  |  | Not Active | Not Active | Not Active | Not Active |  | Not Active | Not Active |  |  |  |  |  |  |  |  |  |
| CC(=O)Nc1nnc(S(N)(=O)=O)s1 [ACETAZOLAMIDE] |  |  | Not Active | Not Active | Not Active | Not Active | Not Active | Not Active | Not Active |  |  |  |  |  |  |  |  |  |
| CCN(CC)CC#CCOC(=O)C(O)(c1ccccc1)C1CCCCC1 (stereo unspecified) [OXYBUTYNIN] |  |  | Not Active | Not Active | Not Active | Not Active |  | Not Active | Not Active |  |  |  |  |  |  |  |  |  |
| O=c1[nH]c2ccccc2n1CCCN1CCC(n2c(=O)[nH]c3cc(Cl)ccc32)CC1 [DOMPERIDONE] |  |  | Not Active |  | Not Active | Not Active |  |  |  |  |  |  |  |  | 1.06 | 0.524 |  |  |
| O=c1n(CCCN2CCN(c3cccc(Cl)c3)CC2)nc2ccccn12 [TRAZODONE] |  |  | Not Active |  | Not Active | Not Active |  | Not Active | Not Active |  |  |  |  |  | 0.265 | 0.13 |  |  |
